Measurements published in patent US20230338454A1, “FORSYTHIA SUSPENSA COMPONENT AND OPTIONAL PANAX GINSENG COMPONENT AND THE APPLICATION” (priority 2020, published 2023).
Where two headings read alike, the source gives them in different places.

How the values were obtained:
Parainfluenza virus [1] = assay: Effect of drugs on viral cytopathic effect, effective antiviral rate (ER%); format: cell-based; conditions: Vero cells, 100TCID50, drug at maximum non-toxic concentration, 72 h, MTT
[2] = system: Herpes simplex virus type 1 (HSV-1); assay: as above; format: cell-based; conditions: Vero cells, 100TCID50, drug at maximum non-toxic concentration, 72 h, MTT
enterovirus 71 (EV71) = assay: as above; format: cell-based; conditions: Vero cells, 100TCID50, drug at maximum non-toxic concentration, 72 h, MTT
influenza virus = format: in vivo, Kunming mice; conditions: for Lung index (x̅ ±S) / Lung index Inhibitory rate (%): 13.0 mg/kg/day by gavage, 5 days
parainfluenza virus [3] = format: in vivo, Kunming mice
parainfluenza virus [4] = format: in vivo, Kunming mice; remark: listed apart in the source
[5] = system: sweat secretion of rat paw; assay: Sweat secretion of rat paw (staining method); format: in vivo, Wistar rats; conditions: of 10 rats; dose not printed, gavage
Text: There are sweat glands on the plantar skin of rats, so the changes in sweat secretion can be observed by the purple reaction between the iodine-starch mixture and the sweat. Five hundred Wistar rats, half male and half female, weighing 120-150 g, were taken in the study. […] The rats were placed in a homemade rat-fixing bag to expose both hind limbs. The dirt on the right paw was gently scrubbed with a cotton swab dipped in absolute ethanol. Except for the pilocarpine solution, which was given by subcutaneous injection, other groups were administered by gavage. One hour after administration (30 min after administration in the pilocarpine group), the sweat secreted from the right paw of rats in each group was gently cleaned with a dry cotton swab before the study and during struggling. The right paw was coated with Wotan-[…] reagent A solution (dissolve 2 g of iodine in 100 mL of absolute ethanol) and then coated with Wotan-[…] reagent B solution (mix 50 g of soluble starch and 100 mL of Ricinus conununis oil well) after reagent A was fully absorbed. […] At the end of the test, a rank-sum test was used to analyze the differences among the groups.

HCMV AD169 strain = assay: Inhibitory effect on HCMV in vitro (MEC, therapeutic index); format: cell-based, human cytomegalovirus; conditions: HCMV AD169, 100 times TCD50, 10 days of culture
Method: Human embryonic lung fibroblast cell strain (purchased from Sino Best Biological Technology Co., Ltd.). The cells were cultured and subcultured according to the conventional method.
HCMV AD169 strain was purchased from American Type Culture Collection (ATCC).
Cells were inoculated in a 96-well plate, allowed to grow into monolayers, and inoculated with a virus challenge of 100 times TCD50. Starting from TD0, each drug was diluted stepwise according to 10-fold gradient to prepare 5 concentrations, with 4 wells set for each concentration. In addition, 4 wells of normal cell control and 4 wells of virus control were set.

[6] = system: Human embryonic lung fibroblast cell strain; assay: Drug toxicity testing (MTT and cytopathic effect methods), maximum non-toxic concentration TD0; conditions: human embryonic lung fibroblasts
[7] = mice infected with parainfluenza virus, 13.0 mg/kg/day by gavage, 5 days
[8] = […], 13.0 mg/kg/day by gavage, 5 days
[9] = mice infected with influenza virus

Compound | Effective Antiviral Rates (ER%) Parainfluenza virus (Parainfluenza virus [1]) | Effective Antiviral Rates (ER%) HSV-I [2] | Effective Antiviral Rates (ER%) EV71 (enterovirus 71 (EV71)) | Number of animals with sweat spots of each grade at 1 min after application of solution B: grade + [5] [animals] | Number of animals with sweat spots of each grade at 1 min after application of solution B: grade ++ [5] [animals] | Number of animals with sweat spots of each grade at 1 min after application of solution B: grade +++ [5] [animals] | Number of animals with sweat spots of each grade at 1 min after application of solution B: grade +++ (fifth grade column) [5] [animals] | Number of animals with sweat spots of each grade at 1 min after application of solution B: grade - [5] [animals] | Number of animals with sweat spots of each grade at 5 min after application of solution B: grade + [5] [animals] | Number of animals with sweat spots of each grade at 5 min after application of solution B: grade ++ [5] [animals] | Number of animals with sweat spots of each grade at 5 min after application of solution B: grade +++ [5] [animals] | Number of animals with sweat spots of each grade at 5 min after application of solution B: grade +++ (fifth grade column) [5] [animals] | Number of animals with sweat spots of each grade at 5 min after application of solution B: grade - [5] [animals] | further results
CC(C)=CCC[C@](C)(O)[C@H]1CC[C@]2(C)[C@@H]1[C@H](O)C[C@@H]1[C@@]3(C)CC[C@H](O[C@@H]4O[C@H](CO)[C@@H](O)[C@H](O)[C@H]4O[C@@H]4O[C@H](CO)[C@@H](O)[C@H](O)[C@H]4O)C(C)(C)[C@@H]3CC[C@]12C [20(R)-Ginsenoside Rg3, 20(R)-ginsenoside Rg3] | 82.21^∗∗ % | 83.61^∗∗ % | 74.66^∗∗ % | 1 | 3 | 3 | 3 | 0 | 1 | 3 | 2 | 4 | 0 | Lung index (x̅ ±S) (influenza virus; […]): 1.302±0.046; Lung index Inhibitory rate (%) (influenza virus; […]): 12.51%; Lung index compared with the infection model group, in words (influenza virus; mouse, in vivo): decreased significantly; Lung index (x̅ ±S) (parainfluenza virus [3]; [7]): 1.357±0.050; Lung index Inhibitory rate (%) (parainfluenza virus [3]; [7]): 14.69%; Lung index compared with the infection model group, in words (parainfluenza virus [3]; mice infected with parainfluenza virus, P < 0.05 or P < 0.01): decreased significantly; Hemagglutinin titer (InX) (parainfluenza virus [4]; [8]): 23.79±1.072; Inhibitory rate (%) of hemagglutination titer (parainfluenza virus [4]; [8]): 28.15%
COc1ccc([C@H]2OCC3C2CO[C@H]3c2ccc(O[C@@H]3OC(CO)[C@@H](O)[C@H](O)C3O)c(OC)c2)cc1OC (stereo partly drawn) [Forsythin] | 84.96^∗∗ % | 85.00^∗∗ % | 84.85^∗∗ % | 2 | 2 | 2 | 4 | 0 | 1 | 2 | 2 | 5 | 0 | Minimum effective concentration MEC (HCMV AD169 strain): 4 mg/L; Lung index (x̅ ±S) (influenza virus; [9]): 1.280±0.040; Lung index Inhibitory rate (%) (influenza virus; [9]): 14.00%; Lung index (x̅ ±S) (parainfluenza virus [3]; mouse, in vivo, 13 mg/kg/day): 1.335±0.062; Lung index Inhibitory rate (%) (parainfluenza virus [3]; mouse, in vivo, 13 mg/kg/day): 16.10%; Hemagglutinin titer (InX) (parainfluenza virus [4]; mouse, in vivo, 13 mg/kg/day): 23.17±1.059; Inhibitory rate (%) of hemagglutination titer (parainfluenza virus [4]; mouse, in vivo, 13 mg/kg/day): 30.01%; Maximum non-toxic concentration TD0 [6]: 40 mg/L
